Square brackets hold non-standard residues; d marks the D form. Ends that are not written are not given here.
Tests used:
cells = experiment: Standard cell attachment assay; assay type: cell-based; design: key: + = positive cell attachment; - = no cell attachment; conditions: for CELL ATTACHMENT ASSAY RESULTS, SODIUM PERIODATE: peptide coupled to HA by sodium periodate method; for CELL ATTACHMENT ASSAY RESULTS, TRESYL CHLORIDE: peptide coupled to HA by tresyl chloride method; for CELL ATTACHMENT ASSAY RESULTS, BDDE: peptide coupled to HA by epoxide (BDDE) method
Procedure: The conjugates prepared by the above described methods, as well as conjugates containing other RGD-peptide sequences, were tested for cell attachment using the following procedures.
New subcultures are made the day before the assay and allowed to grow to 75-80% confluency. When a 100×20 mm dish was 80-90% confluent the cells were detached by adding 4 ml of trypsin/EDTA. When the cells become rounded they are suspended by adding 6 ml of complete media to the 4 ml of trypsin/EDTA (10 ml total). Forty to fifty percent of the cell suspensions were transferred to a new 100×20 mm dish and cultured as usual. One 100×20 mm dish is sufficient to perform 6 cell attachments.
Samples to be tested are placed in 0.5 ml blocking solution (HBSS, 3% BSA, 25 mM Hepes pH 7.0) until needed. Each 100×20 mm dish was trypsinized using 4 ml of trypsin/EDTA for approximately 10 minutes or until cells were easily detached. Cells should not be detached too soon or they will remain aggregated during the cell attachment assay. It is desirable to obtain a good single cell suspension. If clumps of cells are observed let them settle out before using and adjust for the loss of cells in the assay.
The cells were detached from the plate using 6 ml of serum free media (SFM) supplemented with ITS+ (Insulin Transferrin Selenium (Collaborative Research, Inc., Bedford, Mass.), SFM+ITS+=SFM+) for a total volume of 10 ml (4 ml of trypsin/EDTA+6 ml of SFM+). The cells were centrifuged one time to pellet the cells and then they were resuspended in 5 ml of soybean trypsin inhibitor (SBTI) diluted in SFM+. The cells were incubated in SBTI/SFM+ for 10 minutes in a 37° C. water bath. While trypsin was being inactivated, the blocking buyer was removed and the samples suspended in 1 ml of SFM+.
Cells were centrifuged 1 time to remove SBTI. Resuspended cells in 6 ml of SFM+ created a good single cell suspension. If necessary, the resuspended cells can sit on the bench for 5 minutes to let aggregates settle to the bottom before applying to the matrices. Approximately 1 ml of cell suspension per matrix (1-2 mg) was used. The matrix/cells were placed on a rocker in the incubator and cell attachment allowed to go for one to one and half hours. Thereafter, samples were transferred to a 12 well dish and washed 2 times with PBS using an orbital shaker. Neutral red solution (diluted 1:100) was added to PBS and incubated with the cells for 20 minutes on an orbital shaker. Two mls of stain/fix (PBS, 8% formaldehyde, crystal violet 0.0008%) was added and staining allowed to proceed for 2 hours at room temperature on the orbital shaker. Formaldehyde solution was removed and distilled water added. Cell attachment was assessed by microscopy.

[1] = test system: full thickness wounds in guinea pigs; experiment: Full thickness wounds in guinea pigs; assay type: in vivo, guinea pig; conditions: Alcian staining; for residence time in the wound bed: Epoxide (BDDE) method; for residence time: Sodium periodate method; for residence time in the dermal wound: Tresyl chloride method, BDDE cross-linked HA created at pH 6
Procedure: Following the procedures for the full thickness wound model in guinea pigs described in Cheng et al., Arch. Dermatol. 124:221-226 (1988), which is incorporated herein by reference, various peptide-HA conjugates prepared by the above-described methods were analyzed.
The residence times were determined by Alcian staining and were as follows: […]

## Ac G R R R R R G G G R G D I P KNH2 (Ac-GRRRRRGGGRGDIPK-NH2; also: hyaluronate conjugate) [SEQ ID No. 13, RGD peptide, tested conjugated to hyaluronate (HA)]
cells
  CELL ATTACHMENT ASSAY RESULTS, SODIUM PERIODATE: +
  CELL ATTACHMENT ASSAY RESULTS, TRESYL CHLORIDE: +

## Ac G dR dR dR dR dR G G G dR G D S P A S S K (Ac-G[dR][dR][dR][dR][dR]GGG[dR]GDSPASSK; also: hyaluronate conjugate) [SEQ ID No. 5, RGD peptide, tested conjugated to hyaluronate (HA)]
[1]
  residence time in the wound bed: 7 to 10 days
  residence time: 7 to 10 days
  residence time in the dermal wound: 10 to 14 days
cells
  CELL ATTACHMENT ASSAY RESULTS, BDDE: +
  CELL ATTACHMENT ASSAY RESULTS, SODIUM PERIODATE: +

## Ac R R G R G D I P KNH2 (Ac-RRGRGDIPK-NH2; also: hyaluronate conjugate) [SEQ ID No. 14, RGD peptide, tested conjugated to hyaluronate (HA)]
cells
  CELL ATTACHMENT ASSAY RESULTS, SODIUM PERIODATE: -
  CELL ATTACHMENT ASSAY RESULTS, TRESYL CHLORIDE: +

## Ac R R R G G R G D I P KNH2 (Ac-RRRGGRGDIPK-NH2; also: hyaluronate conjugate) [SEQ ID No. 6, RGD peptide, tested conjugated to hyaluronate (HA)]
cells
  CELL ATTACHMENT ASSAY RESULTS, BDDE: +
  CELL ATTACHMENT ASSAY RESULTS, SODIUM PERIODATE: -
  CELL ATTACHMENT ASSAY RESULTS, TRESYL CHLORIDE: +

## G R R G R R G R G D I P TNH2 (GRRGRRGRGDIPT-NH2; also: hyaluronate conjugate) [SEQ ID No. 18, RGD peptide, tested conjugated to hyaluronate (HA)]
cells
  CELL ATTACHMENT ASSAY RESULTS, BDDE: -
  CELL ATTACHMENT ASSAY RESULTS, SODIUM PERIODATE: +

## G R R G R R G R G D TNH2 (GRRGRRGRGDT-NH2; also: hyaluronate conjugate) [SEQ ID No. 19, RGD peptide, tested conjugated to hyaluronate (HA)]
[1]
  residence time: 7 to 10 days

## G R R R G G G R G D I P TNH2 (GRRRGGGRGDIPT-NH2; also: hyaluronate conjugate) [SEQ ID No. 8, RGD peptide, tested conjugated to hyaluronate (HA)]
cells
  CELL ATTACHMENT ASSAY RESULTS, BDDE: +
  CELL ATTACHMENT ASSAY RESULTS, SODIUM PERIODATE: -
  CELL ATTACHMENT ASSAY RESULTS, TRESYL CHLORIDE: +

## G R R R G G R G D I P TNH2 (GRRRGGRGDIPT-NH2; also: hyaluronate conjugate) [SEQ ID No. 9, RGD peptide, tested conjugated to hyaluronate (HA)]
cells
  CELL ATTACHMENT ASSAY RESULTS, BDDE: +
  CELL ATTACHMENT ASSAY RESULTS, SODIUM PERIODATE: -
  CELL ATTACHMENT ASSAY RESULTS, TRESYL CHLORIDE: +

## G R R R G G R G D I PNH2 (GRRRGGRGDIP-NH2; also: hyaluronate conjugate) [SEQ ID No. 7, RGD peptide, tested conjugated to hyaluronate (HA)]
cells
  CELL ATTACHMENT ASSAY RESULTS, BDDE: +
  CELL ATTACHMENT ASSAY RESULTS, SODIUM PERIODATE: -
  CELL ATTACHMENT ASSAY RESULTS, TRESYL CHLORIDE: +

## G R R R R G G G R G D I P TNH2 (GRRRRGGGRGDIPT-NH2; also: hyaluronate conjugate) [SEQ ID No. 4, RGD peptide, tested conjugated to hyaluronate (HA)]
cells
  CELL ATTACHMENT ASSAY RESULTS, BDDE: +
  CELL ATTACHMENT ASSAY RESULTS, SODIUM PERIODATE: +
  CELL ATTACHMENT ASSAY RESULTS, TRESYL CHLORIDE: +

## G R R R R R G G G R G D I PNH2 (GRRRRRGGGRGDIP-NH2; also: hyaluronate conjugate) [SEQ ID No. 12, RGD peptide, tested conjugated to hyaluronate (HA)]
[1]
  residence time: 7 to 10 days
cells
  CELL ATTACHMENT ASSAY RESULTS, SODIUM PERIODATE: +
  CELL ATTACHMENT ASSAY RESULTS, TRESYL CHLORIDE: +

## G R R R R R G G R G D I P TNH2 (GRRRRRGGRGDIPT-NH2; also: hyaluronate conjugate) [SEQ ID No. 3, RGD peptide, tested conjugated to hyaluronate (HA)]
cells
  CELL ATTACHMENT ASSAY RESULTS, BDDE: +
  CELL ATTACHMENT ASSAY RESULTS, SODIUM PERIODATE: +
  CELL ATTACHMENT ASSAY RESULTS, TRESYL CHLORIDE: +

## G R R R R R G R G D I P TNH2 (GRRRRRGRGDIPT-NH2; also: hyaluronate conjugate) [SEQ ID No. 2, RGD peptide, tested conjugated to hyaluronate (HA)]
cells
  CELL ATTACHMENT ASSAY RESULTS, BDDE: +
  CELL ATTACHMENT ASSAY RESULTS, SODIUM PERIODATE: +
  CELL ATTACHMENT ASSAY RESULTS, TRESYL CHLORIDE: +

## G dR dR dR dR dR G G G dR G D S P A S S K (G[dR][dR][dR][dR][dR]GGG[dR]GDSPASSK; also: hyaluronate conjugate) [SEQ ID No. 1, RGD peptide, tested conjugated to hyaluronate (HA)]
[1]
  residence time in the wound bed: 7 to 10 days
  residence time: at least 30 days
  residence time in the dermal wound: 10 to 14 days
cells
  CELL ATTACHMENT ASSAY RESULTS, BDDE: +
  CELL ATTACHMENT ASSAY RESULTS, SODIUM PERIODATE: +
  CELL ATTACHMENT ASSAY RESULTS, TRESYL CHLORIDE: +

## R R R G R G D I P TNH2 (RRRGRGDIPT-NH2; also: hyaluronate conjugate) [SEQ ID No. 11, RGD peptide, tested conjugated to hyaluronate (HA)]
cells
  CELL ATTACHMENT ASSAY RESULTS, BDDE: +

## R R R R G R G D I P TNH2 (RRRRGRGDIPT-NH2; also: hyaluronate conjugate) [SEQ ID No. 10, RGD peptide, tested conjugated to hyaluronate (HA)]
cells
  CELL ATTACHMENT ASSAY RESULTS, BDDE: +
  CELL ATTACHMENT ASSAY RESULTS, SODIUM PERIODATE: +
